From patent US11214803B2, “Modulators of YAP1 expression” (Ionis Pharmaceuticals, Inc., priority 2019, dated 2022) come the findings set out here.

Data set [1] can be described thus: Tolerability in Sprague-Dawley rats, plasma chemistry markers (Example 21). It counts as in vivo. The settings on record: male Sprague-Dawley rats, 50 mg/kg s.c. weekly for 6 weeks (7 doses), 48 hours after last dose. As to the method:
Sprague-Dawley rats are a multipurpose model used for safety and efficacy evaluations. The rats were treated with Ionis modified oligonucleotides from the studies described in the Examples above and evaluated for changes in the levels of various plasma chemistry markers.

Data set [2] in a line: Tolerability in CD-1 mice, body and organ weights (Example 18). It counts as in vivo. The settings on record: male CD-1 mice, 50 mg/kg s.c. twice a week (total of 9 treatments), end of study (day 34). As for the experimental part: Groups of four male CD-1 mice at 5-6 weeks of age (obtained from Charles River) were injected subcutaneously twice a week for four weeks (for a total of 9 treatments) with 50 mg/kg of modified oligonucleotides. One group of male CD-1 mice was injected with PBS. Mice were euthanized on day 34 post start of treatment (24 hours following the final administration).
Body weights of CD-1 mice were measured at the end of the study, and the average body weight for each group is presented in the table below. Modified oligonucleotides that caused any changes in organ weights outside the expected range for modified oligonucleotides were excluded from further studies.

Data set [3] relates to Yap1 mRNA. Put plainly: Dose-dependent inhibition of human Yap1 in A-431 cells (Example 8, 10,000 cells per well, RTS4814). It counts as cell-based. The note with it: for Yap1 mRNA, % UTC: A-431 cells, 10,000 cells per well; for IC50 / % UTC (Yap1 mRNA): A-431 cells. In a few lines:
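Yap1 mRNA, normalized to RIBOGREEN total RNA and expressed as % untreated control, was read with RTS4814 about 48 h after free-uptake oligonucleotide treatment of A-431 cells at 10,000 cells/well. IC50 derived by linear regression of log/linear data.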

Data set [4] can be described thus: Tolerability in Sprague-Dawley rats, body and organ weights (Example 20). It counts as in vivo. The settings on record: male Sprague-Dawley rats, 50 mg/kg s.c. weekly for 6 weeks (7 doses); for Kidney weight / Liver weight / Spleen weight: end of study; for body weight: terminal, prior to necropsy. As for the experimental part:
Terminal body weight was measured prior to necropsy. Ionis oligonucleotides that caused any changes in organ weights outside the expected range for modified oligonucleotides were excluded from further studies.

For data set [5] the following is noted: rat, in vivo, sc, 50 mg/kg.
Experimental: Male Sprague-Dawley rats were maintained on a 12-hour light/dark cycle and fed ad libitum with Purina normal rat chow. Groups of 4 Sprague-Dawley rats each were weekly injected subcutaneously with 50 mg/kg of Ionis oligonucleotide for 6 weeks (total 7 doses). Forty-eight hours after the last dose, the rats were euthanized; and organs, urine and plasma were harvested for further analysis.
To evaluate the effect of Ionis oligonucleotides on kidney function, urinary levels of total protein and creatinine were measured using an automated clinical chemistry analyzer (Hitachi Olympus AU400c, Melville, N.Y.).
Another data set has as its system SNU449 xenograft tumor. Put plainly: Tumor volume in SNU449 xenograft tumor model (first Example 30). It counts as in vivo, human. The settings on record: 50 mg/kg. As to the method: Modified oligonucleotides described in the studies above were tested in a hepatocellular carcinoma SNU449 xenograft tumor model. A control oligonucleotide 792169 was also tested.
Five million SNU449 cells in 30% matrigel were implanted subcutaneously into the fatpads of female NOD.Cg-Prkdcscid II2rgtmlWjl/SzJ mice (from Jackson Laboratory) at 4-6 weeks of age. 43 days post implantation (when tumors had reached approximately 100 mm^3 in size), groups of eight mice each were administered with 50 mg/kg modified oligonucleotide daily for 10 days (loading dose), following which they were administered with 50 mg/kg modified oligonucleotide four times a week for one week, following which they were dosed with 50 mg/kg modified oligonucleotide thrice weekly until the end of the study. Animals were sacrificed and tumors were collected on day 119 post implantation. Yap1 mRNA knockdown in tumors was measured by RT-qPCR as previously described using the Human Yap1 primer-probe set RTS4814. Yap1 mRNA levels were normalized to actin-beta content, as measured by primer probe set RTS5002. Results are presented in the tables below as percent control of the amount of Yap1 mRNA relative to PBS treated animals (% control).
Tumor volumes were also measured at the indicated days in the table below
For orientation: In xenograft studies the graft and the host belong to different species.

Data set [6] concerns Yap1 mRNA. Put plainly: Antisense inhibition of human Yap1 in A-431 cells by cEt gapmers, single dose (Example 4, RTS4814). Type of data set: cell-based. A digest of the protocol: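 Values are % UTC: Yap1 mRNA by quantitative RT-PCR, normalized to RIBOGREEN total RNA. Cells were exposed ~48 h to 2,000 nM oligonucleotide without transfection. Oligonucleotides were 16-nucleoside gapmers with three cEt nucleosides per wing, ten-deoxy gap, P=S linkages throughout.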

Setting [7] is: day 101 post tumor implantation.
[8] abbreviates: day 105 post tumor implantation.
Where [9] appears, read: day 108 post tumor implantation.
The mark [10] stands for this setting: day 119 post tumor implantation.

“And” between values parts separate entries of the source, which are not always exact repeats. Equal entries are not always repeated. Marks after values point to notes of the source that are not given here. Strand notation (5' to 3'): a small letter for the sugar, then the base; units joined by * are phosphorothioate-linked, units joined directly phosphodiester-linked; [ ] holds rarer units or linkages, { } end groups; capitals alone tell only the bases. k = constrained ethyl (cEt); [5mC] = 5-methylcytosine; d = 2'-deoxy (DNA)

In general, IC50 refers to the concentration needed to halve the response being measured. Low values mean greater potency, high ones weaker potency.

For the substance “1198439 (AGTGTATGTCAGAAGA; sugar, 5-methylcytosine, phosphorothioate modifications, further chemistry not given here) [compound 1198439]”, in data set [1], the ALT was 54* U/L, the AST is 94* U/L, the BUN is recorded as 22* mg/dL and the TBIL is 0.15* mg/dL.
With “1076453 (GTAATATTGCAATCTG; 3-10-3 cEt gapmer, further chemistry not given here) [compound 1076453]”, the figures for the Kidney weight in data set [2] and in data set [4] were 0.56 g and 3.2 g, respectively. The Liver weight in data set [2] is on record as 1.91 g; in data set [4] it was 16 g. Also, the Spleen weight in data set [2] was found to be 0.20 g; in data set [4], 2.1 g. The results for the body weight in data set [2] and in data set [4] were 38 g and 371 g, respectively. Moreover, the “Yap1 mRNA, % UTC” value in the data set with Yap1 mRNA [3] (31.3 nM, free uptake, approximately 48 hours, RTS4814) turned out to be 11 % UTC; with Yap1 mRNA [3] (125.0 nM, free uptake, approximately 48 hours, RTS4814) it was 2 % UTC; in the data set with Yap1 mRNA [3] (500.0 nM, free uptake, approximately 48 hours, RTS4814), 1 % UTC; with Yap1 mRNA [3] (2000.00 nM, free uptake, approximately 48 hours, RTS4814), 2 % UTC. In the data set on Yap1 mRNA [3] (free uptake, approximately 48 hours, RTS4814, linear regression on log/linear plot), this substance displayed an IC50 of under 20 nM. Besides, the “URINE P/C ratio (total protein to creatinine ratio)” value in data set [5] came to 5.
As to “1198440 (AAGTGTATGTCAGAAG; cEt, 2'-MOE, 5-methylcytosine, phosphorothioate modifications, further chemistry not given here) [compound 1198440]”, the “Average Tumor Volume” value was found to be 111 mm^3 in the data set with SNU449 xenograft tumor (day 43 post tumor implantation); 152 mm^3 in the data set with SNU449 xenograft tumor (day 46 post tumor implantation); 168 mm^3 in the data set on SNU449 xenograft tumor (day 50 post tumor implantation); 201 mm^3 in the data set on SNU449 xenograft tumor (day 53 post tumor implantation); 242 mm^3 in the data set with SNU449 xenograft tumor (day 57 post tumor implantation); 263 mm^3 in the data set on SNU449 xenograft tumor (day 60 post tumor implantation). Also, the “Average Tumor Volume” value in the data set with SNU449 xenograft tumor (day 64 post tumor implantation) came out at 338 mm^3; in the data set on SNU449 xenograft tumor (day 67 post tumor implantation), 376 mm^3; in the data set with SNU449 xenograft tumor (day 71 post tumor implantation) it was 373 mm^3; in the data set on SNU449 xenograft tumor (day 75 post tumor implantation) it was 401 mm^3; in the data set on SNU449 xenograft tumor (day 78 post tumor implantation), 429 mm^3; in the data set with SNU449 xenograft tumor (day 81 post tumor implantation), 514 mm^3. The “Average Tumor Volume” value with SNU449 xenograft tumor (day 85 post tumor implantation) was 606 mm^3; with SNU449 xenograft tumor (day 88 post tumor implantation), 613 mm^3; in the data set on SNU449 xenograft tumor (day 92 post tumor implantation), 690 mm^3; in the data set on SNU449 xenograft tumor (day 94 post tumor implantation), 773 mm^3; with SNU449 xenograft tumor (day 98 post tumor implantation), 804 mm^3; in the data set on SNU449 xenograft tumor (setting [7]) it was 818 mm^3. The “Average Tumor Volume” value was 894 mm^3 with SNU449 xenograft tumor (setting [8]), 921 mm^3 in the data set on SNU449 xenograft tumor (setting [9]) and 978 mm^3 in the data set on SNU449 xenograft tumor (setting [10]). In data set [1], the ALT is on record as 58** U/L. Further, the AST in data set [1] was 108** U/L. In addition, the BUN in data set [1] is reported as 20** mg/dL. Further, in data set [1], the TBIL was 0.17** mg/dL.
Turning to “958499 (kA*kT*kT*dA*dG*dA*dG*dT*dA*dT*dG*dT*dG*kG*k[5mC]*kA) [Compound 958499]”, the “YAP1 (% UTC)” value in the data set with Yap1 mRNA [6] (Table 14, A-431 cells, 5,000 cells per well, free uptake, 2,000 nM, approximately 48 hours, RTS4814, normalized to RIBOGREEN, Yap1 mRNA relative to untreated control, * = targets amplicon region of primer probe set) came to 2 % UTC; with Yap1 mRNA [6] (Table 15, A-431 cells, 5,000 cells per well, free uptake, 2,000 nM, approximately 48 hours, RTS4814, normalized to RIBOGREEN, Yap1 mRNA relative to untreated control, * = targets amplicon region of primer probe set), 1 % UTC; with Yap1 mRNA [6] (Table 16, A-431 cells, 5,000 cells per well, free uptake, 2,000 nM, approximately 48 hours, RTS4814, normalized to RIBOGREEN, Yap1 mRNA relative to untreated control cells) it was 2 % UTC; in the data set with Yap1 mRNA [6] (Table 17, A-431 cells, 5,000 cells per well, free uptake, 2,000 nM, approximately 48 hours, RTS4814, normalized to RIBOGREEN, Yap1 mRNA relative to untreated control cells), 3 % UTC.
Consider “CGCCGATAAGGTACAC (cEt gapmer, phosphorothioate backbone, further chemistry not given here) [ION 792169, reference compound]”, for which the “Average Tumor Volume” value in the data set on SNU449 xenograft tumor (day 43 post tumor implantation) came to 111 mm^3; with SNU449 xenograft tumor (day 46 post tumor implantation), 162 mm^3; with SNU449 xenograft tumor (day 50 post tumor implantation) it was 180 mm^3; in the data set on SNU449 xenograft tumor (day 53 post tumor implantation) it was 247 mm^3; in the data set with SNU449 xenograft tumor (day 57 post tumor implantation), 280 mm^3; in the data set with SNU449 xenograft tumor (day 60 post tumor implantation) it was 317 mm^3. Also, the “Average Tumor Volume” value was 397 mm^3 in the data set with SNU449 xenograft tumor (day 64 post tumor implantation); 466 mm^3 with SNU449 xenograft tumor (day 67 post tumor implantation); 519 mm^3 with SNU449 xenograft tumor (day 71 post tumor implantation); 559 mm^3 with SNU449 xenograft tumor (day 75 post tumor implantation); 634 mm^3 in the data set with SNU449 xenograft tumor (day 78 post tumor implantation); 681 mm^3 with SNU449 xenograft tumor (day 81 post tumor implantation). Further, the “Average Tumor Volume” value with SNU449 xenograft tumor (day 85 post tumor implantation) is on record as 785 mm^3; in the data set on SNU449 xenograft tumor (day 88 post tumor implantation) it was 889 mm^3; in the data set on SNU449 xenograft tumor (day 92 post tumor implantation), 1170 mm^3; in the data set with SNU449 xenograft tumor (day 94 post tumor implantation), 1215 mm^3; with SNU449 xenograft tumor (day 98 post tumor implantation), 1355 mm^3; in the data set on SNU449 xenograft tumor (setting [7]), 1417 mm^3. Also, the entries for the “Average Tumor Volume” value with SNU449 xenograft tumor (setting [8]), in the data set on SNU449 xenograft tumor (setting [9]) and in the data set on SNU449 xenograft tumor (setting [10]) were 1509 mm^3, 1571 mm^3 and 1697* mm^3, respectively.
“958499 (ATTAGAGTATGTGGCA; 3-10-3 cEt gapmer, further chemistry not given here) [compound 958499]”: the Kidney weight in data set [2] is on record as 0.57 g; in data set [4], 3.1 g. Also, the figures for the Liver weight in data set [2] and in data set [4] were 2.20 g and 14 g, respectively. Further, the Spleen weight in data set [2] stood at 0.22 g; in data set [4], 2.8 g. Besides, the body weight was 39 g in data set [2] and 333 g in data set [4]. Also, the “% UTC (Yap1 mRNA)” value in the data set with Yap1 mRNA [3] (31.3 nM) is 36 % UTC and 37 % UTC; in the data set on Yap1 mRNA [3] (125.0 nM), 5 % UTC and 4 % UTC; with Yap1 mRNA [3] (500.0 nM), 2 % UTC; with Yap1 mRNA [3] (2000.00 nM), 2 % UTC. This substance also yielded an IC50 in the data set with Yap1 mRNA [3] (Yap1 mRNA) of under 20 nM. Also, the “YAP1 (% UTC)” value in the data set on Yap1 mRNA [6] (Yap1 mRNA remaining as percent of untreated control, 3-10-3 cEt gapmers, A-431 cells, Table 36) came to 1 % UTC; with Yap1 mRNA [6] (Yap1 mRNA remaining as percent of untreated control, 3-10-3 cEt gapmers, A-431 cells, Table 37) it was 2 % UTC. Besides, the “URINE P/C ratio (total protein to creatinine ratio)” value in data set [5] came to 5.
